Measured values as given in PubChem BioAssay (NCI).
Values joined by “and” are separate entries in the source; they are usually repeats but may differ in a detail not shown here. Equal values may be shown once.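 Interpolation was linear, between the two tested concentrations surrounding the appropriate level; five concentrations were tested over 48 hours in 96-well plates. Here, GI50 denotes the concentration required for 50% inhibition of growth. At the TGI there is no net growth.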

How the values were obtained:
Test in all cases: DTP human tumour cell line panel, 48 h
786-0 renal = tested on: 786-0 renal
EKVX NSCLC = tested on: EKVX NSCLC
K-562 leukemia = tested on: K-562 leukemia
MALME-3M melanoma = tested on: MALME-3M melanoma
NCI/ADR-RES ovarian = tested on: NCI/ADR-RES ovarian
SK-MEL-2 melanoma = tested on: SK-MEL-2 melanoma
SK-MEL-5 melanoma = tested on: SK-MEL-5 melanoma
T-47D breast = tested on: T-47D breast
UO-31 renal = tested on: UO-31 renal
NCI-H23 lung = tested on: NCI-H23 lung

Row | SMILES | GI50 (786-0 renal) [µM] | TGI (786-0 renal) [µM] | GI50 (EKVX NSCLC) [µM] | TGI (EKVX NSCLC) [µM] | GI50 (K-562 leukemia) [µM] | TGI (K-562 leukemia) | GI50 (MALME-3M melanoma) [µM] | TGI (MALME-3M melanoma) [µM] | GI50 (NCI/ADR-RES ovarian) [µM] | TGI (NCI/ADR-RES ovarian) [µM] | GI50 (SK-MEL-2 melanoma) [µM] | TGI (SK-MEL-2 melanoma) | GI50 (SK-MEL-5 melanoma) [µM] | TGI (SK-MEL-5 melanoma) | GI50 (T-47D breast) [µM] | TGI (T-47D breast) | GI50 (UO-31 renal) [µM] | TGI (UO-31 renal) | TGI (NCI-H23 lung) | GI50 (NCI-H23 lung) [µM]
1 | CC1(C)OC[C@@H]([C@@]2(CO[Si](C)(C)C(C)(C)C)CC=CC(=O)O2)O1 | 20.7 | 40.4 | 26.9 | 63.3 | 26.7 | > 100 µM | 20.1 | 47.6 | 21.7 | 49.2 | 40.4 | > 100 µM | 19 | 36.3 µM | 24.9 | > 100 µM | 19.2 | 42.2 µM | – | –
2 | OC(C1=C/C(=C\c2ccncc2)c2ccccc21)c1ccncc1 (stereo not given) | – | 30.3 | – | 41.5 | – | 28.1 µM | – | 38.3 | – | > 75 | – | 33.8 µM | – | 13 µM | – | 33.7 µM | – | 28.2 µM | 39.2 µM | –
3 | c1ccc(C(=NNc2nc3ccccc3o2)c2ccccn2)nc1 | 0.125 | – | 0.0387 | – | – | > 100 µM and 22.9 µM | 0.134 | – | 0.0386 | – | 0.465 | 28.8 µM and 27.1 µM | 0.163 | 1.18 µM and 0.491 µM | – | 12.4 µM and 25.8 µM | 0.0427 | 1.18 µM and 3.03 µM | 26.6 µM and 27.9 µM | 0.0617
4 | COc1ccc2nc(-c3ccccc3)cc(Nc3ccc(C(C)=O)cc3)c2c1 | 1.31 | 3.54 | 5.98 | 20.5 | 1.14 | 11.7 µM | 5.28 | 18.7 | 2.78 | 7.29 | 38.7 | > 100 µM | 1.6 | 3.86 µM | 15.7 | > 100 µM | 6.2 | > 100 µM | 11.9 µM | 3.51
5 | S=c1nc(Oc2ccc(Cl)c(Cl)c2)[nH]c(=S)[nH]1 | – | > 100 | – | > 93.9 | – | > 31.6 µM | – | > 71.3 | – | > 100 | – | – | – | > 55.6 µM | – | 59.6 µM | – | 71.2 µM | > 63.3 µM | –
6 | CC(=O)C1CC2(c3ccc(C)cc3)C(c3ccc(C)cc3)=C(c3ccc(C)cc3)C1(c1ccc(C)cc1)S2=O (stereo not given) | > 100 | > 100 | > 100 | > 100 | > 100 | > 100 µM | > 100 | > 100 | > 100 | > 100 | > 100 | > 100 µM | > 100 | > 100 µM | 68 | > 100 µM | > 100 | > 100 µM | > 100 µM | > 100
7 | N#CC1=C(N)N=C(N2CCCCC2)C(C#N)C12Nc1ccccc1S2 (stereo not given) | 26.5 | 79.2 | 28.7 | 91.1 | > 100 | > 100 µM | 47.2 | > 100 | 20 | 68.6 | 36.4 | 79 µM | 19.6 | 42.3 µM | 35 | > 100 µM | 40.8 | > 100 µM | 52.8 µM | 16.7
8 | CC([C@H]1CCC2C3CCC4C[C@@H](NC=O)CC[C@]4(C)C3CC[C@@]21C)N(C)C (stereo not given in full) | 1.99 | 4.15 | 2.64 | 19.1 | 0.862 | 3.18 µM | 2.18 | 4.83 | 6.02 | 21.4 | 5.71 | 13.8 µM | 1.37 | 2.74 µM | 1.76 | 5.94 µM | 1.49 | 3.12 µM | 19 µM | 4.73
9 | O=C1CCCCCCCC/C=C/CCC(c2ccco2)O1 (stereo not given) | 45.9 | > 100 | > 100 | > 100 | 35.2 | > 100 µM | 6.7 | 62.6 | > 100 | > 100 | > 100 | > 100 µM | 44 | > 100 µM | 21 | > 100 µM | – | – | > 100 µM | > 100
10 | Cc1ccccc1CN1CC2=C(CCN(Cc3ccccc3)C2=O)N2CCN=C12 | – | > 100 | – | > 100 | – | > 100 µM | 9.84 | > 100 | – | > 100 | – | > 81.6 µM | – | > 64.7 µM | – | > 84.2 µM | – | > 100 µM | > 100 µM | –
11 | CCOC(=O)Cc1csc(/N=C2\NC(=O)/C(=C3\C(=O)N(C)c4ccccc43)S2)n1 | 28 | 72.5 | 44.1 | > 100 | 36 | > 100 µM | 21.8 | 95.2 | 49.6 | > 100 | 24.2 | > 100 µM | 38 | > 100 µM | 81.5 | > 100 µM | 35.6 | > 100 µM | > 100 µM | 48
